Data on 18 molecules can be found in patent publication US9234000B2, “Benzylamine derivatives as inhibitors of plasma kallikrein” (KalVista Pharmaceuticals Limited, priority 2011, dated 2016).

For one data set, the target named is Human KLK1 (Homo sapiens (Human), UniProt P06870). Description: Determination of the IC50 for KLK1. The format is biochemical. The following applies: Human KLK1, 37° C., substrate H-DVal-Leu-Arg-AFC. A digest of the protocol: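 IC50 values reflect residual human KLK1 activity, read as initial rate from optical absorbance change at 410 nm. Incubations ran at 37° C with H-DVal-Leu-Arg-AFC as substrate across a compound concentration series.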

Another data set deals with Human plasma kallikrein (Homo sapiens (Human), UniProt P03952). The experiment in a line: Determination of the IC50 for plasma kallikrein. Format: biochemical. The following applies: 37° C., read-out: IC50 (human PKal). In short, it runs like this: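 Human plasma kallikrein incubated at 37° C with fluorogenic substrate H-DPro-Phe-Arg-AFC and varying compound concentrations. Initial reaction rate followed by absorbance change at 410 nm to give residual activity and IC50.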

The next data set in a line: physchem. Conditions: for solubility in PO4 buffer: pH 7. How it is done: Determination of the Kinetic Solubility in Phosphate Buffer
After shaking for approximately 30 seconds the reduction in light transmission of these samples, at 650 nm, was measured (Molecular Devices Spectromax UV/visible spectrophotometer). A second measurement was taken at approximately 30 seconds later.

Where [1] appears, read: fluorogenic substrate H-DPro-Phe-Arg-AFC.

In general, IC50 refers to the concentration at which inhibition is half-maximal. One may read the solubility as the dissolved amount per volume that the medium holds.

Each structure is given as a SMILES string. ≈ marks a conversion by molar mass, not a printed value. Read-outs that look alike come from different tables or passages of the source.

Human plasma kallikrein, sequence (P03952 391-638): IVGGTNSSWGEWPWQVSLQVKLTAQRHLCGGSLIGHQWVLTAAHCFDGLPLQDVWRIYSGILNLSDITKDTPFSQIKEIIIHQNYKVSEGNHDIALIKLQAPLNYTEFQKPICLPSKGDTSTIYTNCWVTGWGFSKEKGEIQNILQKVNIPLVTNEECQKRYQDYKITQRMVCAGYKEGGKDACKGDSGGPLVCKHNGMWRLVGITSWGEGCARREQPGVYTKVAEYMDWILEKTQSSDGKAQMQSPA
Human plasma kallikrein, sequence (P03952 20-390 partner): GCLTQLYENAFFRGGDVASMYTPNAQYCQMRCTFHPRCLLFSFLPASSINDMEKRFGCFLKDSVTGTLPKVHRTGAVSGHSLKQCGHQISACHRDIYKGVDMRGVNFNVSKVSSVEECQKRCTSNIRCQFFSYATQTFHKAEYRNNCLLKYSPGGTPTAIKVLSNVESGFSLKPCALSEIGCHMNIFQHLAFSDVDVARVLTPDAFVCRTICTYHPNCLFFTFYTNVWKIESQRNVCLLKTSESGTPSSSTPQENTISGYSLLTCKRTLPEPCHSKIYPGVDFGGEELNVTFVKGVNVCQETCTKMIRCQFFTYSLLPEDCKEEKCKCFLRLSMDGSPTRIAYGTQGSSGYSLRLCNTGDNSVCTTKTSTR
Human KLK1, sequence (P06870 25-262): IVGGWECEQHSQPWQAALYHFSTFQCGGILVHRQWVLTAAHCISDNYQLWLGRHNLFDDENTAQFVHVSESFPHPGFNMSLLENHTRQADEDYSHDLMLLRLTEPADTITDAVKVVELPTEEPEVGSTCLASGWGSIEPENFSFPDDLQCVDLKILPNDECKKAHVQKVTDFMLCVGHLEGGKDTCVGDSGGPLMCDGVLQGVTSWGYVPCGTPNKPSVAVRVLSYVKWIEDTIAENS

With `CCOc1ccc(C[C@@H](NC(=O)CC)C(=O)N[C@@H](Cc2ccccc2)C(=O)NCc2ccc(CN)cc2)cc1` [Example 1, (S)—N-(4-Aminomethyl-benzyl)-2-[(R)-3-(4-ethoxy-phenyl)-2-propionylamino-propionylamino]-3-phenyl-propionamide], the IC50 against Human KLK1 (Table 12) is > 1000 nM; at Human plasma kallikrein (setting [1]), 89 nM. Further, in the data set “physchem”, the solubility in PO4 buffer is > 235 µM.
As to `CCOc1ccc(C[C@@H](NS(C)(=O)=O)C(=O)N[C@@H](Cc2ccccc2)C(=O)NCc2ccc(CN)cc2)cc1` [Example 2, (R)—N—[(S)-1-(4-Aminomethyl-benzylcarbamoyl)-2-phenyl-ethyl]-3-(4-ethoxy-phenyl)-2-methanesulfonylamino-propionamide], the IC50 on Human plasma kallikrein (setting [1]) worked out at 820 nM. Moreover, the solubility in PO4 buffer in “physchem” was > 235 µM.
With `NCc1ccc(CNC(=O)[C@H](Cc2ccccc2)NC(=O)[C@@H](CC2CCCCC2)NCC(=O)O)cc1` [Example 4, {(R)-1-[(S)-1-(4-Aminomethyl-benzylcarbamoyl)-2-phenyl-ethylcarbamoyl]-2-cyclohexyl-ethylamino}-acetic acid], the IC50 against Human KLK1 (Table 12) is > 10000 nM; on Human plasma kallikrein (setting [1]), 230 nM. Besides, the solubility in PO4 buffer in the data set “physchem” was > 235 µM.
On the same counts, the results for `CCOc1ccc(C[C@@H](N)C(=O)N[C@@H](Cc2ccccc2)C(=O)NCc2ccc(CN)cc2)cc1` [Example 5, (R)-2-Amino-N-[(S)-1-(4-aminomethyl-benzylcarbamoyl)-2-phenyl-ethyl]-3-(4-ethoxy-phenyl)-propionamide] are 160 nM, 460 nM and > 235 µM.
For `CCOc1ccc(C[C@@H](N)C(=O)N[C@@H](Cc2ccccc2)C(=O)NCc2ccc(CN)c(F)c2)cc1` [Example 6, (R)-2-Amino-N-[(S)-1-(4-aminomethyl-3-fluoro-benzylcarbamoyl)-2-phenyl-ethyl]-3-(4-ethoxy-phenyl)-propionamide] the same measures were > 1000 nM, 1000 nM and > 235 µM.
Take `NCc1ccc(CNC(=O)[C@H](Cc2ccccc2)NC(=O)[C@H](N)CC2CCCCC2)cc1` [Example 8, (R)-2-Amino-N-[(S)-1-(4-aminomethyl-benzylcarbamoyl)-2-phenyl-ethyl]-3-cyclohexyl-propionamide]: the solubility in PO4 buffer in “physchem” is > 235 µM.
In the case of `CN(C)[C@H](CC1CCCCC1)C(=O)N[C@@H](Cc1ccccc1)C(=O)NCc1ccc(CN)cc1` [Example 9, (R)-N-[(S)-1-(4-Aminomethyl-benzylcarbamoyl)-2-phenyl-ethyl]-3-cyclohexyl-2-dimethylamino-propionamide], the IC50 was > 1000 nM against Human KLK1 (Table 12) and 2000 nM on Human plasma kallikrein (setting [1]). Besides, the solubility in PO4 buffer in the data set “physchem” is > 235 µM.
As to `CCC(=O)N[C@H](CC1CCCCC1)C(=O)N[C@@H](Cc1ccccc1)C(=O)NCc1ccc(CN)cc1` [Example 10, (S)-N-(4-Aminomethyl-benzyl)-2-((R)-3-cyclohexyl-2-propionylamino-propionylamino)-3-phenyl-propionamide], the half-inhibitory concentration (IC50) at Human plasma kallikrein (setting [1]) is 7200 nM. In the data set “physchem”, the solubility in PO4 buffer was > 235 µM.
On the same counts, the results for `CS(=O)(=O)N[C@H](CC1CCCCC1)C(=O)N[C@@H](Cc1ccccc1)C(=O)NCc1ccc(CN)cc1` [Example 11, (R)-N-[(S)-1-(4-Aminomethyl-benzylcarbamoyl)-2-phenyl-ethyl]-3-cyclohexyl-2-methanesulfonylamino-propionamide] are 1700 nM and > 235 µM.
For `CCOc1ccc(C[C@@H](NC(=O)CC)C(=O)N[C@@H](Cc2ccccc2)C(=O)NCc2ccc(CN)cc2Cl)cc1` [Example 12, (S)-N-(4-Aminomethyl-2-chloro-benzyl)-2-[(R)-3-(4-ethoxy-phenyl)-2-propionylamino-propionylamino]-3-phenyl-propionamide] the same measures were 290 nM and > 235 µM.
For `CCOc1ccc(C[C@@H](N)C(=O)N[C@@H](Cc2ccc(Cl)c(Cl)c2)C(=O)NCc2ccc(CN)cc2)cc1` [Example 14, (R)-2-Amino-N-[(S)-1-(4-aminomethyl-benzylcarbamoyl)-2-(3,4-dichloro-phenyl)-ethyl]-3-(4-ethoxy-phenyl)-propionamide], the IC50 on Human KLK1 (Table 12) was found to be 3700 nM; on Human plasma kallikrein (setting [1]), 400 nM. Besides, in the data set “physchem”, the solubility in PO4 buffer is > 235 µM.
`CCOc1ccc(C[C@@H](NC(=O)c2ccc(-c3ccccc3)cc2)C(=O)N[C@@H](Cc2ccccc2)C(=O)NCc2ccc(CN)cc2)cc1` [Example 57, Biphenyl-4-carboxylic acid [(R)-1-[(S)-1-(4-aminomethyl-benzylcarbamoyl)-2-phenyl-ethylcarbamoyl]-2-(4-ethoxy-phenyl)-ethyl]-amide]: on Human plasma kallikrein (setting [1]), the IC50 turned out to be 10000 nM. Further, in the data set “physchem” (pH 7, aqueous buffer, kinetic from dmso stock), the concentration in solution (solubility) was 36 µM (≈ 23.6 µg/mL).
`CCOc1ccc(C[C@@H](N)C(=O)N[C@H](C(=O)NCc2ccc(CN)cc2)[C@@H](O)c2ccccc2)cc1` [Example 61, (R)-2-Amino-N-[(1S,2S)-1-(4-aminomethyl-benzylcarbamoyl)-2-hydroxy-2-phenyl-ethyl]-3-(4-ethoxy-phenyl)-propionamide]: on Human plasma kallikrein (setting [1]), the IC50 is 220 nM. Moreover, in the data set “physchem”, the solubility in PO4 buffer was > 235 µM.
On to `CCOc1ccc(C[C@@H](NC(=O)CC)C(=O)N[C@H](C(=O)NCc2ccc(CN)cc2)[C@@H](O)c2ccccc2)cc1` [Example 63, (2S,3S)-N-(4-Aminomethyl-benzyl)-2-[(R)-3-(4-ethoxy-phenyl)-2-propionylamino-propionylamino]-3-hydroxy-3-phenyl-propionamide], for which the half-maximal inhibitory concentration (IC50) at Human plasma kallikrein (setting [1]) came out at 52 nM. In addition, the solubility in PO4 buffer in the data set “physchem” is > 235 µM.
Turning to `CCOc1ccc(C[C@@H](NC(=O)CC)C(=O)N(CC)[C@H](Cc2ccccc2)C(=O)NCc2ccc(CN)cc2)cc1` [Example 64, (R)-N-(4-Aminomethyl-benzyl)-2-{[(R)-3-(4-ethoxy-phenyl)-2-propionylamino-propionyl]-ethyl-amino}-3-phenyl-propionamide], at Human plasma kallikrein (setting [1]), the IC50 was 3400 nM. Besides, the solubility in PO4 buffer in the data set “physchem” is > 235 µM.
As to `CCOc1ccc(C[C@@H](NC(=O)CC(F)(F)F)C(=O)N[C@@H](Cc2ccc(Cl)c(Cl)c2)C(=O)NCc2ccc(CN)cc2)cc1` [Example 172, N-[(R)-1-[(S)-1-(4-Aminomethyl-benzylcarbamoyl)-2-(3,4-dichloro-phenyl)-ethylcarbamoyl]-2-(4-ethoxy-phenyl)-ethyl]-3,3,3-trifluoro-propionamide], the half-inhibitory concentration (IC50) was > 10000 nM on Human KLK1 (Table 13) and 881 nM at Human plasma kallikrein (substrate H-DPro-Phe-Arg-AFC).
In the case of `CCOc1ccc(C[C@@H](NC(=O)c2ccccc2)C(=O)N[C@@H](Cc2c[nH]cn2)C(=O)NCc2ccc(CN)cc2)cc1` [Example 177, N-[(R)-1-[(S)-1-(4-Aminomethyl-benzylcarbamoyl)-2-(1H-imidazol-4-yl)-ethylcarbamoyl]-2-(4-ethoxy-phenyl)-ethyl]-benzamide], the IC50 was > 10000 nM on Human KLK1 (Table 13) and 457 nM on Human plasma kallikrein (substrate H-DPro-Phe-Arg-AFC).
For `CCOc1ccc(C[C@@H](NC(=O)c2ccccc2)C(=O)N[C@@H](Cc2ccccc2F)C(=O)NCc2ccc(CN)cc2)cc1` [Example 180, N-[(R)-1-[(S)-1-(4-Aminomethyl-benzylcarbamoyl)-2-(2-fluoro-phenyl)-ethylcarbamoyl]-2-(4-ethoxy-phenyl)-ethyl]-benzamide] the same measures were > 10000 nM and 73 nM.
